The values below come from ChEMBL document CHEMBL1158780, “Anti-Helicobacter pylori compounds from Santalum album” (2005).

Converted amounts (≈) assume the structure as drawn. Where only a bound is given, the exact number is not on record here.

Holding throughout (format): functional
Assay [1] concerns Helicobacter pylori. The assay is described as follows: Antimicrobial activity against Helicobacter pylori SS1 at 100 ug/disk after 4 days by disk diffusion method. The following applies: SS1, 96 h, read-out: IZ. (In general: In agar diffusion tests the substance spreads into inoculated agar from a disc or well.)
Assay [2] relates to Helicobacter pylori. The assay is described as follows: Antimicrobial activity against Helicobacter pylori ATCC 43504 at 100 ug/disk after 4 days by disk diffusion method. The conditions noted are these: ATCC 43504, 96 h, read-out: IZ.
Assay [3] has as its system Helicobacter pylori. The assay is described as follows: Antimicrobial activity against Helicobacter pylori Sa-2 isolate after 4 days by twofold plate dilution method. The following applies: 96 h.
Assay [4] has as its system Helicobacter pylori. Kind of assay: Antimicrobial activity against Clarithromycin-resistant Helicobacter pylori TS281 after 4 days by twofold plate dilution method. The following applies: 96 h.
Assay [5] deals with Helicobacter pylori. The assay is described as follows: Antimicrobial activity against Helicobacter pylori TPH30 after 4 days by twofold plate dilution method. The following applies: 96 h.
In assay [6] the test system is Helicobacter pylori. The assay is described as follows: Antimicrobial activity against Clarithromycin-resistant Helicobacter pylori TS648 after 4 days by twofold plate dilution method. The conditions noted are these: 96 h.
Assay [7] concerns Helicobacter pylori. Kind of assay: Antimicrobial activity against Helicobacter pylori Sa-3 isolate after 4 days by twofold plate dilution method. The following applies: 96 h.
Assay [8] concerns Helicobacter pylori. Kind of assay: Antimicrobial activity against Helicobacter pylori Sa-1 isolate after 4 days by twofold plate dilution method. The following applies: 96 h.
Assay [9] deals with Helicobacter pylori. Kind of assay: Antimicrobial activity against Helicobacter pylori SS1 after 4 days by twofold plate dilution method. The conditions noted are these: SS1, 96 h.
Assay [10] deals with Helicobacter pylori. The assay is described as follows: Antimicrobial activity against Helicobacter pylori ATCC 43504 after 4 days by twofold plate dilution method. The conditions noted are these: ATCC 43504, 96 h.
The subject of assay [11] is Helicobacter pylori. Kind of assay: Antimicrobial activity against Helicobacter pylori ATCC 43504 at 250 ng/disk after 4 days by disk diffusion method.
The test system of assay [12] is Helicobacter pylori. Kind of assay: Antimicrobial activity against Helicobacter pylori SS1 at 250 ng/disk after 4 days by disk diffusion method.

The term MIC denotes the least concentration at which growth counts as inhibited. The low end stands for a more susceptible organism, the high end for a less susceptible organism.

On to `C=C1[C@H]2CC[C@H](C2)[C@]1(C)CCC=C(CO)CO`, for which the zone of inhibition at 100 µg/disc in the assay with Helicobacter pylori [1] came to 10.4 mm; with Helicobacter pylori [2] it was 21.1 mm.

As to `C/C(=C/CC[C@@]1(C)[C@H]2CC[C@]1(C)[C@H](O)C2)CO`, the results for the zone of inhibition at 100 µg/disc in the assay with Helicobacter pylori [1] and in the assay on Helicobacter pylori [2] were 11.1 mm and 27.1 mm, respectively.

With `C/C(=C/CC[C@@]1(C)C2CC[C@@](C)(C2)[C@@H]1O)CO`, the zone of inhibition at 100 µg/disc in the assay with Helicobacter pylori [1] amounted to 15.5 mm; with Helicobacter pylori [2], 27.6 mm.

Consider `CC1(CCC=C(CO)CO)C2CC3C(C2)C31C` (stereo not drawn), for which the zone of inhibition at 100 µg/disc in the assay on Helicobacter pylori [1] is 25.9 mm; in the assay on Helicobacter pylori [2], 38.7 mm.

For `C/C(=C/CCC(C)(O)c1ccc(C)cc1)CO` (stereo not drawn), the zone of inhibition at 100 µg/disc was determined as 11.2 mm in the assay on Helicobacter pylori [1] and 24.9 mm with Helicobacter pylori [2].

Consider `C=C(CC/C=C(\C)CO)[C@@H]1CC=C(C)CC1`, for which the MIC against Helicobacter pylori [3] turned out to be 62.5 µg/mL (≈ 284 µM); against Helicobacter pylori [4], 62.5 µg/mL (≈ 284 µM); against Helicobacter pylori [5], 62.5 µg/mL (≈ 284 µM); against Helicobacter pylori [6] it was 31.3 µg/mL (≈ 142 µM); with Helicobacter pylori [7], 31.3 µg/mL (≈ 142 µM); against Helicobacter pylori [8], 31.3 µg/mL (≈ 142 µM). Moreover, the MIC in the assay with Helicobacter pylori [9] came out at 125 µg/mL (≈ 567 µM); in the assay with Helicobacter pylori [10], 62.5 µg/mL (≈ 284 µM). The zone of inhibition at 100 µg/disc in the assay on Helicobacter pylori [1] is 10.6 mm; with Helicobacter pylori [2], 11.9 mm.

As for `C=C(CC/C=C(/C)CO)[C@H]1CC[C@@](C)(O)CC1`, the zone of inhibition at 100 µg/disc in the assay on Helicobacter pylori [2] is 8.9 mm.

Take `CC1(C)S[C@@H]2[C@H](NC(=O)[C@H](N)c3ccc(O)cc3)C(=O)N2[C@H]1C(=O)O` [AMOXICILLIN]: the MIC in the assay on Helicobacter pylori [3] came out at 0.06 µg/mL (≈ 0.164 µM); in the assay with Helicobacter pylori [4] it was 0.5 µg/mL (≈ 1.37 µM); with Helicobacter pylori [5], 0.25 µg/mL (≈ 0.684 µM); against Helicobacter pylori [6], 0.13 µg/mL (≈ 0.356 µM); against Helicobacter pylori [7], 0.25 µg/mL (≈ 0.684 µM); in the assay on Helicobacter pylori [8], 0.06 µg/mL (≈ 0.164 µM). The results for the MIC with Helicobacter pylori [9] and against Helicobacter pylori [10] were 0.25 µg/mL (≈ 0.684 µM) and 0.06 µg/mL (≈ 0.164 µM), respectively. Moreover, the “inhibition zone (IZ)” value is 35.3 mm in the assay with Helicobacter pylori [11] and 20.3 mm with Helicobacter pylori [12].

`C/C(=C/CC[C@@]1(C)[C@@H]2CC[C@@H](C2)[C@@]1(C)O)CO`: the results for the zone of inhibition at 100 µg/disc in the assay with Helicobacter pylori [1] and with Helicobacter pylori [2] were 16.8 mm and 20.1 mm, respectively.

On to `C/C(=C/CC[C@]1(C)C2C[C@@H]3[C@H](C2)C31C)CO`, for which the minimum inhibitory concentration (MIC) in the assay on Helicobacter pylori [3] worked out at 31.3 µg/mL (≈ 142 µM); against Helicobacter pylori [4], 15.6 µg/mL (≈ 70.8 µM); against Helicobacter pylori [5], 15.6 µg/mL (≈ 70.8 µM); in the assay with Helicobacter pylori [6], 7.8 µg/mL (≈ 35.4 µM); with Helicobacter pylori [7], 7.8 µg/mL (≈ 35.4 µM); in the assay on Helicobacter pylori [8], 7.8 µg/mL (≈ 35.4 µM). For the same molecule, the MIC with Helicobacter pylori [9] amounted to 31.3 µg/mL (≈ 142 µM); with Helicobacter pylori [10], 15.6 µg/mL (≈ 70.8 µM). Also, the zone of inhibition at 100 µg/disc in the assay with Helicobacter pylori [1] is 11.5 mm; with Helicobacter pylori [2], 21.6 mm.

For `C/C(=C/CC[C@]1(C)[C@H]2CC[C@]1(C)[C@@H](O)C2)CO`, the figures for the zone of inhibition at 100 µg/disc with Helicobacter pylori [1] and in the assay with Helicobacter pylori [2] were 22.8 mm and 28.9 mm, respectively.

For the molecule `C=C1[C@H]2CC[C@H](C2)[C@@]1(C)CC/C=C(/C)CO`, the MIC with Helicobacter pylori [3], in the assay with Helicobacter pylori [4], in the assay with Helicobacter pylori [5], in the assay with Helicobacter pylori [6], in the assay with Helicobacter pylori [7] and in the assay with Helicobacter pylori [8] was 7.8 µg/mL (≈ 35.4 µM) throughout. For the same molecule, the MIC against Helicobacter pylori [9] worked out at 31.3 µg/mL (≈ 142 µM); with Helicobacter pylori [10] it was 7.8 µg/mL (≈ 35.4 µM). Moreover, the zone of inhibition at 100 µg/disc with Helicobacter pylori [1] is 13.5 mm; in the assay on Helicobacter pylori [2], 27.2 mm.

Take `CC[C@H]1OC(=O)[C@H](C)[C@@H](O[C@H]2C[C@@](C)(OC)[C@@H](O)[C@H](C)O2)[C@H](C)[C@@H](O[C@@H]2O[C@H](C)C[C@H](N(C)C)[C@H]2O)[C@](C)(OC)C[C@@H](C)C(=O)[C@H](C)[C@@H](O)[C@]1(C)O` [CLARITHROMYCIN]: the MIC with Helicobacter pylori [3] was at most 0.06 µg/mL; against Helicobacter pylori [4] it was 32 µg/mL (≈ 42.8 µM); against Helicobacter pylori [5], at most 0.06 µg/mL; against Helicobacter pylori [6], 2 µg/mL (≈ 2.67 µM); in the assay on Helicobacter pylori [7], at most 0.06 µg/mL; in the assay on Helicobacter pylori [8], at most 0.06 µg/mL. In addition, the MIC in the assay with Helicobacter pylori [9] and with Helicobacter pylori [10] was at most 0.06 µg/mL throughout.
